US8916702B2 (priority 2012, dated 2014)

test system: HCV pseudoparticles (genotype 1a HCV E1 and E2 envelope, H77C isolate); test: microbe, parasite or virus in culture; format: cell-based; conditions: Hepatitis C virus, Huh-7, 48 h, HCV pseudoparticle infection of Huh7 cells, luciferase 2 days after infection; average of duplicates

`COC(=O)[C@H](CCNC(=O)C(=O)NC(C)C1CC1)NC(=O)c1ccc(Nc2nc(NC3(c4ccc(Cl)cc4)CC3)nc(OCC(F)(F)F)n2)cc1` (stereo partly shown) [Compound 1417] and `C[C@H](NC(=O)C(=O)NCC[C@H](NC(=O)c1ccc(Nc2nc(NC3(c4ccc(Cl)cc4)CC3)nc(OCC(F)(F)F)n2)cc1)C(=O)O)C1CC1` [Compound 1435] are within 1.5-fold of each other in EC50: 0.16 nM for the first, 0.11 nM for the second.

Going from `COC(=O)[C@H](CCNC(=O)C(=O)NC(c1ccc(OC)cc1)C1CC1)NC(=O)c1ccc(Nc2nc(NC3(c4ccc(Cl)cc4)CC3)nc(OCC(F)(F)F)n2)cc1` (stereo partly shown) [Compound 1418] to `O=C(NCC[C@H](NC(=O)c1ccc(Nc2nc(NC3(c4ccc(Cl)cc4)CC3)nc(OCC(F)(F)F)n2)cc1)C(=O)O)C(=O)NCC1(C(=O)O)CC1` [Compound 1447], the EC50 rises from 0.28 nM to 97.7 nM (350-fold). The first is the more potent here.

same assay, conditions: Hepatitis C virus, Huh-7, 48 h, read-out: Activity (EC50 class), HCV pseudoparticle infection of Huh7 cells, luciferase 2 days after infection; EC50 expressed as class A/B

`Cn1cc(CCNC(=O)C(=O)NC[C@@H](NC(=O)c2ccc(Nc3nc(NC4(c5ccc(Cl)cc5)CC4)nc(OCC(F)(F)F)n3)cc2)C(=O)O)cn1` [Compound 1413] and `O=C(NCC[C@H](NC(=O)c1ccc(Nc2nc(NC3(c4ccc(Cl)cc4)CC3)nc(OCC(F)(F)F)n2)cc1)C(=O)O)C(=O)NCC1CC1(Cl)Cl` (stereo partly shown) [Compound 1445] fall in the same range of EC50: 0.01 to 10 nM for the first, 0.01 to 10 nM for the second.

`O=C(NCC1CCc2ccccc21)C(=O)NC[C@H](NC(=O)c1ccc(Nc2nc(NC3(c4ccc(Cl)cc4)CC3)nc(OCC(F)(F)F)n2)cc1)C(=O)O` (stereo partly shown) [Compound 1414] and `O=C(NC[C@H](NC(=O)c1ccc(Nc2nc(NC3(c4ccc(Cl)cc4)CC3)nc(OCC(F)(F)F)n2)cc1)C(=O)O)C(=O)NC1(Cc2ccccc2)CC1` [Compound 1415] fall in the same range of EC50: 0.01 to 10 nM for the first, 0.01 to 10 nM for the second.

`COC(=O)[C@@H](CCNC(=O)C(=O)NCC1CC1c1cccc(OC)c1)NC(=O)c1ccc(Nc2nc(NC3(c4ccc(Cl)cc4)CC3)nc(OCC(F)(F)F)n2)cc1` (stereo partly shown) [Compound 1416] and `COc1cccc(C2CC2CNC(=O)C(=O)NCC[C@H](NC(=O)c2ccc(Nc3nc(NC4(c5ccc(Cl)cc5)CC4)nc(OCC(F)(F)F)n3)cc2)C(=O)O)c1` (stereo partly shown) [Compound 1423] fall in the same range of EC50: 0.01 to 10 nM for the first, 0.01 to 10 nM for the second.

`COC(=O)[C@H](CCNC(=O)C(=O)NC(C)C1CC1)NC(=O)c1ccc(Nc2nc(NC3(c4ccc(Cl)cc4)CC3)nc(OCC(F)(F)F)n2)cc1` (stereo partly shown) [Compound 1417] and `C[C@@H](NC(=O)C(=O)NCC[C@H](NC(=O)c1ccc(Nc2nc(NC3(c4ccc(Cl)cc4)CC3)nc(OCC(F)(F)F)n2)cc1)C(=O)O)C1CC1` [Compound 1420] fall in the same range of EC50: 0.01 to 10 nM for the first, 0.01 to 10 nM for the second.

`COC(=O)[C@H](CCNC(=O)C(=O)NC(c1ccc(OC)cc1)C1CC1)NC(=O)c1ccc(Nc2nc(NC3(c4ccc(Cl)cc4)CC3)nc(OCC(F)(F)F)n2)cc1` (stereo partly shown) [Compound 1418] and `COc1ccc(C(NC(=O)C(=O)NCC[C@H](NC(=O)c2ccc(Nc3nc(NC4(c5ccc(Cl)cc5)CC4)nc(OCC(F)(F)F)n3)cc2)C(=O)O)C2CC2)cc1` (stereo partly shown) [Compound 1437] fall in the same range of EC50: 0.01 to 10 nM for the first, 0.01 to 10 nM for the second.

`COCC1(CNC(=O)C(=O)NCC[C@@H](NC(=O)c2ccc(Nc3nc(NC4(c5ccc(Cl)cc5)CC4)nc(OCC(F)(F)F)n3)cc2)C(=O)O)CC1` [Compound 1419] and `CCOCC1(CNC(=O)C(=O)NCC[C@H](NC(=O)c2ccc(Nc3nc(NC4(c5ccc(Cl)cc5)CC4)nc(OCC(F)(F)F)n3)cc2)C(=O)O)CC1` [Compound 1422] fall in the same range of EC50: 0.01 to 10 nM for the first, 0.01 to 10 nM for the second.

`O=C(NCC[C@H](NC(=O)c1ccc(Nc2nc(NC3(c4ccc(Cl)cc4)CC3)nc(OCC(F)(F)F)n2)cc1)C(=O)O)C(=O)NCC1(c2ccccc2)CC1` [Compound 1421] and `O=C(NCC[C@H](NC(=O)c1ccc(Nc2nc(NC3(c4ccc(Cl)cc4)CC3)nc(OCC(F)(F)F)n2)cc1)C(=O)O)C(=O)NCC1(COc2ccccc2)CC1` [Compound 1431] fall in the same range of EC50: 0.01 to 10 nM for the first, 0.01 to 10 nM for the second.

First: O=C(NCC[C@H](NC(=O)c1ccc(Nc2nc(NC3(c4ccc(Cl)cc4)CC3)nc(OCC(F)(F)F)n2)cc1)C(=O)O)C(=O)NCC1(CO)CC1 [Compound 1424]
Second: O=C(NCC[C@H](NC(=O)c1ccc(Nc2nc(NC3(c4ccc(Cl)cc4)CC3)nc(OCC(F)(F)F)n2)cc1)C(=O)O)C(=O)NCC1(C(=O)O)CC1 [Compound 1447]
The EC50 of the first is lower: 0.01 to 10 nM for the first, 10 to 1000 nM for the second. The first is the more potent here.

`CC(C)(C)OC(=O)NC1(CNC(=O)C(=O)NCC[C@H](NC(=O)c2ccc(Nc3nc(NC4(c5ccc(Cl)cc5)CC4)nc(OCC(F)(F)F)n3)cc2)C(=O)O)CC1` [Compound 1425] and `CC1(C)C(CNC(=O)C(=O)NCC[C@@H](NC(=O)c2ccc(Nc3nc(NC4(c5ccc(Cl)cc5)CC4)nc(OCC(F)(F)F)n3)cc2)C(=O)O)C1(C)C` [Compound 1449] fall in the same range of EC50: 0.01 to 10 nM for the first, 0.01 to 10 nM for the second.

`O=C(NCC[C@H](NC(=O)c1ccc(Nc2nc(NC3(c4ccc(Cl)cc4)CC3)nc(OCC(F)(F)F)n2)cc1)C(=O)O)C(=O)NCC1(CN2CCOCC2)CC1` [Compound 1426] and `CN1CCN(CC2(CNC(=O)C(=O)NCC[C@H](NC(=O)c3ccc(Nc4nc(NC5(c6ccc(Cl)cc6)CC5)nc(OCC(F)(F)F)n4)cc3)C(=O)O)CC2)CC1` [Compound 1432] fall in the same range of EC50: 0.01 to 10 nM for the first, 0.01 to 10 nM for the second.

`Cc1cc(C)n(CC2(CNC(=O)C(=O)NCC[C@H](NC(=O)c3ccc(Nc4nc(NC5(c6ccc(Cl)cc6)CC5)nc(OCC(F)(F)F)n4)cc3)C(=O)O)CC2)n1` [Compound 1427] and `CCc1ccnn1CC1(CNC(=O)C(=O)NCC[C@H](NC(=O)c2ccc(Nc3nc(NC4(c5ccc(Cl)cc5)CC4)nc(OCC(F)(F)F)n3)cc2)C(=O)O)CC1` [Compound 1430] fall in the same range of EC50: 0.01 to 10 nM for the first, 0.01 to 10 nM for the second.

`O=C(NCC[C@H](NC(=O)c1ccc(Nc2nc(NC3(c4ccc(Cl)cc4)CC3)nc(OCC(F)(F)F)n2)cc1)C(=O)O)C(=O)NCC1(Cn2cccn2)CC1` [Compound 1428] and `O=C(NCC[C@H](NC(=O)c1ccc(Nc2nc(NC3(c4ccc(Cl)cc4)CC3)nc(OCC(F)(F)F)n2)cc1)C(=O)O)C(=O)NCC1(Cn2ccnc2)CC1` [Compound 1429] fall in the same range of EC50: 0.01 to 10 nM for the first, 0.01 to 10 nM for the second.

`O=C(NCC[C@H](NC(=O)c1ccc(Nc2nc(NC3(c4ccc(Cl)cc4)CC3)nc(OCC(F)(F)F)n2)cc1)C(=O)O)C(=O)Nc1ccccc1` [Compound 1433] and `C[C@H](NC(=O)C(=O)NCC[C@H](NC(=O)c1ccc(Nc2nc(NC3(c4ccc(Cl)cc4)CC3)nc(OCC(F)(F)F)n2)cc1)C(=O)O)C1CC1` [Compound 1435] fall in the same range of EC50: 0.01 to 10 nM for the first, 0.01 to 10 nM for the second.

`Cc1cccc(C2CC2CNC(=O)C(=O)NCC[C@H](NC(=O)c2ccc(Nc3nc(NC4(c5ccc(Cl)cc5)CC4)nc(OCC(F)(F)F)n3)cc2)C(=O)O)c1` (stereo partly shown) [Compound 1434] and `O=C(NCC[C@H](NC(=O)c1ccc(Nc2nc(NC3(c4ccc(Cl)cc4)CC3)nc(OCC(F)(F)F)n2)cc1)C(=O)O)C(=O)NCC1CC1c1cccc(F)c1` (stereo partly shown) [Compound 1448] fall in the same range of EC50: 0.01 to 10 nM for the first, 0.01 to 10 nM for the second.

`O=C(NCC[C@H](NC(=O)c1ccc(Nc2nc(NC3(c4ccc(Cl)cc4)CC3)nc(OCC(F)(F)F)n2)cc1)C(=O)O)C(=O)NCC1CC1c1ccc(F)cc1` (stereo partly shown) [Compound 1438] and `Cc1ccc(C2CC2CNC(=O)C(=O)NCC[C@H](NC(=O)c2ccc(Nc3nc(NC4(c5ccc(Cl)cc5)CC4)nc(OCC(F)(F)F)n3)cc2)C(=O)O)cc1` (stereo partly shown) [Compound 1444] fall in the same range of EC50: 0.01 to 10 nM for the first, 0.01 to 10 nM for the second.

`O=C(NCC[C@H](NC(=O)c1ccc(Nc2nc(NC3(c4ccc(Cl)cc4)CC3)nc(OCC(F)(F)F)n2)cc1)C(=O)O)C(=O)NC(CCO)C1CC1` (stereo partly shown) [Compound 1439] and `COCC(NC(=O)C(=O)NCC[C@H](NC(=O)c1ccc(Nc2nc(NC3(c4ccc(Cl)cc4)CC3)nc(OCC(F)(F)F)n2)cc1)C(=O)O)C1CC1` (stereo partly shown) [Compound 1441] fall in the same range of EC50: 0.01 to 10 nM for the first, 0.01 to 10 nM for the second.

`CC(NC(=O)C(=O)NCC[C@H](NC(=O)c1ccc(Nc2nc(NC3(c4ccc(Cl)cc4)CC3)nc(OCC(F)(F)F)n2)cc1)C(=O)O)C1CC1` (stereo partly shown) [Compound 1440] and `O=C(NCC[C@H](NC(=O)c1ccc(Nc2nc(NC3(c4ccc(Cl)cc4)CC3)nc(OCC(F)(F)F)n2)cc1)C(=O)O)C(=O)NCC1(CN2CCCN2)CC1` [Compound 1443] fall in the same range of EC50: 0.01 to 10 nM for the first, 0.01 to 10 nM for the second.

`O=C(NCC[C@H](NC(=O)c1ccc(Nc2nc(NC3(c4ccc(Cl)cc4)CC3)nc(OCC(F)(F)F)n2)cc1)C(=O)O)C(=O)NCC1CC1c1cc(F)ccc1F` (stereo partly shown) [Compound 1442] and `O=C(NCC[C@H](NC(=O)c1ccc(Nc2nc(NC3(c4ccc(Cl)cc4)CC3)nc(OCC(F)(F)F)n2)cc1)C(=O)O)C(=O)NCC1CC1c1cccc2c1OCO2` (stereo partly shown) [Compound 1446] fall in the same range of EC50: 0.01 to 10 nM for the first, 0.01 to 10 nM for the second.
